Data on 84 compounds can be found in PubChem BioAssay AID588780 (Sanford-Burnham Center for Chemical Genomics, 2011).

Structures are written as SMILES. Active and inactive are the calls of the source.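 How the source made its calls: active means compounds whose fitted half-maximal concentration in the cell-protection dose series is at or below a set limit; inactive means the rest.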

The subject of the test is H9c2 cardiomyocytes, 2-deoxyglucose stress, ATP luminescence, 2 h. The test can be described thus: protection of cardiomyocytes from 2-deoxyglucose injury, dose response, cell-based, 2-deoxyglucose stress, uHTS hits (AID 588780).
The term IC50 denotes the point on the concentration scale where inhibition reaches its midpoint. For the compound `CCN(CC)C(=O)c1[nH]cnc1C(=O)NCC(=O)OCc1ccccc1`, the IC50 is > 79 µM (inactive). As for `O=c1[nH]c2cc(O)ccc2c2ccccc12`, the figure is > 79 µM (inactive); as for `O=C(CCn1c(=O)oc2ccccc21)N(Cc1ccccc1)c1ccccc1`, > 79 µM (inactive). The figure for `CC1Nc2ncnc(N3CCN(c4ccccc4)CC3)c2N(Cc2ccc(Br)cc2)C1=O` (centres undefined) is > 79 µM (inactive). The figure for `CCC(CC)C(=O)Nc1cc(C)c2c(=O)oc3ccccc3c2n1` is > 79 µM (inactive); for `COc1ccccc1-c1cc(NC=O)c2ncc(-c3cccc(C(C)=O)c3)n2c1` it is > 79 µM (inactive).

`Nc1ccc(-c2n[nH]c(=O)c3ccccc23)cc1N`: the IC50 was > 79 µM (inactive). The figure for `Cc1cccc(NC(=O)c2nc[nH]c2C(=O)NCC(=O)OCc2ccccc2)c1` is > 79 µM (inactive); for `O=C(c1ccc(-c2nc3ccccc3s2)o1)N1CCN(c2ccccc2O)CC1` it is 12.3 µM; for `CCOc1cc(/C=N/NC(N)=O)cc(Br)c1OCC(=O)Nc1cccc2ccccc12` it is > 79 µM (inactive).

Take `C/C(=N/NC(=O)c1cccs1)c1cccc(NC(=O)C2CC2)c1`: the IC50 was > 79 µM (inactive). For `COc1cc(/C=c2\s/c(=C(/C#N)C(=O)N3CCCC3)n(-c3ccccc3)c2=O)ccc1O`, the IC50 was 25 µM. The figure for `CCOc1ccc(C(C(=O)NC2CCCC2)N(C(=O)c2snc(C(N)=O)c2N)c2cccc(O)c2)cc1` (centres undefined) is > 79 µM (inactive). As for `C1=C(c2ccccc2)CCN(c2nc3ccccc3n3cnnc23)C1`, the figure is 27.6 µM; as for `COC(=O)c1cc(C(=O)OCC(=O)N2c3ccccc3NC(=O)C2(C)C)cc([N+](=O)[O-])c1`, 39 µM (inactive).

Turning to `COc1ccc(-c2cc(NC=O)c3ncc(-c4cccc(C(C)=O)c4)n3c2)cc1`, the IC50 was > 79 µM (inactive). For the compound `Cc1ccc(N=Cc2cc(Cl)cc(Cl)c2O)nc1`, the IC50 is > 79 µM (inactive). The figure for `CCn1ncc2c1C(=O)NC1c3ccccc3C(=O)N21` (centres undefined) is > 79 µM (inactive). As for `NS(=O)(=O)c1ccc(CCNc2ccn3nc(-c4ccc(OCCN5CCOCC5)cc4)cc3n2)cc1`, the figure is 37.3 µM (inactive). Regarding `Cc1cccc(C)c1OCCn1nc(C(=O)O)c2ccccc2c1=O`, the 50% inhibitory concentration (IC50) was 10.8 µM. The figure for `COCCn1nnnc1CN(CCc1ccccc1)Cc1cc2cc(OC)ccc2[nH]c1=O` is > 79 µM (inactive); for `CN(C)S(=O)(=O)n1cc(/C=C(\NC(=O)c2ccccc2F)C(=O)NCCN2CCOCC2)c2ccccc21` it is > 79 µM (inactive). The figure for `CCOC(=O)N1CCC(n2c(SCC(=O)N3CCC(C)CC3)nc3ccccc3c2=O)CC1` is > 79 µM (inactive). The figure for `CCOc1ccc(S(=O)(=O)N(C)CCO)cc1-c1nc2c(C(C)(C)C)nn(C)c2c(=O)[nH]1` is 26.9 µM; for `COc1ccc(-c2cc(C(=O)N(C)Cc3nc4ccccc4c(=O)[nH]3)c3ccccc3n2)cc1OC` it is > 79 µM (inactive); for `O=C(CN(c1ccc2c(c1)OCCO2)S(=O)(=O)c1ccccc1)Nc1ccc2c(c1)OCO2` it is > 79 µM (inactive).

Take `Fc1ccc(-c2ccc(-c3nn4c(-c5ccco5)nnc4s3)o2)cc1`: the IC50 was > 79 µM (inactive). The figure for `CC(C)c1cc(N2CCN(C(=O)c3ccco3)CC2)n2c(nc3ccccc32)c1C#N` is 28.5 µM; for `O=C1Nc2cnc(Cl)nc2Nc2ccccc21` it is > 79 µM (inactive); for `Cc1ccc2nc(-c3ccccc3)cc(C(=O)NNC(=O)c3csc(N4CCOCC4)n3)c2c1` it is > 79 µM (inactive). The figure for `O=C(COc1cccc(F)c1)Nc1nc(-c2ccccn2)cs1` is 30.9 µM (inactive). As for `CCC(=O)Nc1cccc(-c2nnc(-c3cccc(NC(=O)CC)c3)o2)c1`, the figure is > 79 µM (inactive); as for `O=C(N/N=C/c1cn(-c2ccccc2)nc1-c1cccs1)c1ccccc1F`, > 79 µM (inactive); as for `O=C(Nc1nc2ccccc2n1Cc1ccccc1)c1ccco1`, 14.7 µM. Consider `COc1cccc(-c2nnc(NC(=O)c3ccc(Cl)s3)o2)c1`, for which the IC50 was > 79 µM (inactive).

As for `CCN(CC)CCn1c(NC(=O)c2ccc(Cl)cc2)nc2ccccc21`, the IC50 is > 79 µM (inactive).

Turning to `CCOC(=O)C1=C(C)NC(C)=C(C(=O)OCCNC(=O)c2cccnc2)C1c1cccc([N+](=O)[O-])c1` (centres undefined), the IC50 was 28.6 µM. As for `COCCCn1c(C)nc2c(c1=O)c1nc3ccccc3nc1n2CCc1ccccc1`, the figure is > 79 µM (inactive).

For `Cc1cc(C)c2ccc(N)nc2c1O`, the IC50 was > 79 µM (inactive). The figure for `COc1ccc(CCNC(=O)c2cc3c(C)nccc3[nH]c2=O)cc1OC` is 16.3 µM; for `COc1ccc(N(CC(=O)Nc2ccc3c(c2)OCO3)S(=O)(=O)c2ccccc2)c(OC)c1` it is 15.4 µM. As for `O=C(CCc1nc2ccccc2c(=O)[nH]1)NNC(=O)c1ccc(Cl)cc1`, the figure is > 79 µM (inactive); as for `COc1ccc(NC(=O)CN(C)C(=O)Cc2n[nH]c(=O)c3ccccc23)cc1`, > 79 µM (inactive). As for `COc1cc(/C=C/C(=O)OCC(=O)N2c3ccccc3NC(=O)C2(C)C)cc(OC)c1OC`, the figure is > 79 µM (inactive). As to `CCOC(=O)CSc1nnc(CSc2nc3sc4c(c3c(=O)[nH]2)CCC4)n1C`, the IC50 is > 79 µM (inactive). As for `COc1cccc(C(=O)CSc2nnc(-c3cc(OC)c(OC)c(OC)c3)o2)c1`, the figure is > 79 µM (inactive); as for `CCOC(=O)C(Cc1ccc(NC(=O)/C(=C/c2ccc(OC(C)=O)cc2)NC(C)=O)cc1)N1C(=O)c2ccccc2C1=O` (centres undefined), > 79 µM (inactive).

With `Cc1c(C#N)c(N)nc2c3c(sc12)NC(=O)CC3c1ccccc1` (centres undefined), the IC50 was > 79 µM (inactive). With `N#Cc1c(-c2ccco2)cc(-c2cccnc2)nc1N`, the IC50 was 12.1 µM. The figure for `COc1cc(/C=N/NC(=O)c2ccncc2)ccc1OCC(=O)Nc1ccc(C)c(C)c1` is > 79 µM (inactive). As for `O=C(/C=C/NNC(=O)c1ccccc1)c1ccc(Br)cc1`, the IC50 is > 79 µM (inactive).

Turning to `Cc1ccc(-c2n[nH]c(=O)c3ccccc23)cc1S(=O)(=O)NCCN1CCOCC1`, the IC50 is > 79 µM (inactive). As to `CCCC(c1nnnn1C(C)(C)CC)N(CCCO)Cc1cc2cc(C)cc(C)c2[nH]c1=O` (centres undefined), the IC50 was > 79 µM (inactive). `COc1ccc(-c2cc(-c3nnc(COC(=O)C4CC4C)o3)c3ccccc3n2)cc1OC` (centres undefined): the IC50 was > 79 µM (inactive).

For the compound `Cc1cc(C)c2ccc(NN)nc2c1O`, the IC50 is > 79 µM (inactive). As for `Cc1c(/C=N/NC(=O)c2ccc(O)cc2)c2ccccn2c1C(=O)c1ccc(F)cc1`, the figure is > 79 µM (inactive). As for `O=C(N/N=C/c1ccccn1)c1cc(-c2ccc(Cl)s2)[nH]n1`, the figure is > 79 µM (inactive). As for `Cc1cc(NC(=O)COC(=O)COc2ccc3c4c(c(=O)oc3c2)CCC4)no1`, the figure is > 79 µM (inactive).

Turning to `CC(=O)c1cccc(NC(=O)C(C)OC(=O)CCc2nc3ccccc3c(=O)[nH]2)c1` (centres undefined), the IC50 is > 79 µM (inactive). In the case of `CCN(C[C@H]1N[C@@](CC)(C(=O)OC)[C@H]2C(=O)N(Cc3ccccc3)C(=O)[C@@H]12)S(=O)(=O)c1ccc(F)cc1`, the IC50 is > 79 µM (inactive). The figure for `CCc1cc2cccc(C)c2nc1SCC(=O)N1CCN(C(=O)c2ccco2)CC1` is > 79 µM (inactive); for `CCC(c1nnnn1Cc1ccccc1)N1CCC(n2c(=O)[nH]c3ccccc32)CC1` (centres undefined) it is > 79 µM (inactive); for `COc1ccc(COc2cc(-c3cccc(OC)c3)nc3ccc(NC(=O)c4ccc(OC)cc4)cc23)cc1` it is 5.3 µM. As for `O=c1[nH]c2cc(F)ccc2c2ccc(F)cc12`, the figure is 73.6 µM (inactive); as for `COc1ccc(-c2cc(C(F)F)n3ncc(C(=O)Nc4ccc(C(=O)N5CCOCC5)cc4)c3n2)cc1`, > 79 µM (inactive); as for `CC(OC(=O)c1cc2c(ccc3ccccc32)oc1=O)c1nc2ccccc2s1` (centres undefined), 15.7 µM.

With `O=c1c2ccccc2nc(-c2ccc(Cl)c(Cl)c2)n1O`, the IC50 is 8.16 µM. The figure for `COC(=O)N1C(=O)[C@](c2ccccc2)(C2CCCCC2)N1C(=O)OC` is 25.4 µM. As for `COc1ccc2[nH]c(=O)c(CN(CCc3ccccc3)Cc3nnnn3CC3CCCO3)cc2c1` (centres undefined), the figure is > 79 µM (inactive); as for `CCCN1C(=O)/C(=C/c2nc3ccccc3c(=O)[nH]2)c2ccccc21`, 11.2 µM; as for `O=C(COc1cccc2c1CCNC2=O)Nc1ccc(F)cc1`, > 79 µM (inactive). For the compound `COc1ccc(-c2nn3c(-c4ccco4)nnc3s2)cc1OC`, the IC50 is 33.8 µM (inactive). The figure for `NC(=O)c1nsc(C(=O)N(c2ccccc2F)C(C(=O)NCc2ccc(F)cc2)c2ccc(O)cc2)c1N` (centres undefined) is > 79 µM (inactive); for `COc1ccc(-c2nnc(-c3cc(OC)c(OC)c(OC)c3)o2)cc1OC` it is 14.6 µM. The figure for `COc1ccc(/C=N/NC(=O)c2cc(OC)c(OC)c(OC)c2)cc1CN1CCc2cc(OC)c(OC)cc2C1C` (centres undefined) is > 79 µM (inactive).

In the case of `COc1cccc(/C=N/NC(=O)c2oc3nc(-c4ccccc4)cc(-c4ccco4)c3c2N)c1`, the IC50 is > 79 µM (inactive).

For the compound `COc1ccc(Cl)cc1-c1nc(-c2ccc(NC(=O)c3cccs3)cc2)no1`, the IC50 is > 79 µM (inactive).

In the case of `Cn1c2ccccc2c2cc(/C=N/NC(=O)c3cc(O)ccc3O)ccc21`, the IC50 is > 79 µM (inactive). For the compound `Cc1c(Cl)cnc(NC(=O)COC(=O)c2ccc([N+](=O)[O-])s2)c1Cl`, the IC50 was > 79 µM (inactive). As for `COc1cc2oc3cc(C#Cc4ccc(N)cc4)ccc3c(=O)c2cc1OC`, the figure is > 79 µM (inactive); as for `O=C(Nc1nc(-c2ccccn2)cs1)c1cccc(S(=O)(=O)N2CCOCC2)c1`, 41.5 µM (inactive); as for `COC(=O)C1=C(C)N(CCc2ccc(OC)cc2)C(=O)C1`, 39.4 µM (inactive).

In the case of `CCC(=O)N1CCN(c2ccccc2NC(=O)COc2cc(C)ccc2C(C)C)CC1`, the IC50 was 11.5 µM. As for `O=C(CCc1nc2ccccc2c(=O)[nH]1)Nc1ccc(Cl)c(Cl)c1`, the figure is 20.6 µM.
